From patent publication US20240327392A1, “HETEROCYCLOALKYL-SUBSTITUTED POLYHETEROAZOLE DERIVATIVES AS MEDICAMENTS FOR TREATING AND/OR PREVENTING RS VIRUS INFECTIONS” (ALBIUS SCIENCES ALPHA PRIVATE LIMITED, priority 2021, published 2024)
Read-outs that look alike come from different tables or passages of the source.

Test system: human RS virus A2 strain
Assay: In vitro test for anti-RS virus proliferation inhibitory activity (quantitative RT-PCR of RS virus RNA copy number in infected Vero cells)
Assay type: cell-based
Details: 72 h, Vero cells infected with human RS virus A2 strain, 3 days of incubation, read-out: Anti-RS virus Activity
Procedure: A mixture of Vero cells (3.4×10^5 cells/mL) and human RS virus A2 strain (1.7×10^4 TCID50/mL) (EMEM medium supplemented with 10% FCS) was added to a 96-well plate at 50 μL/well, and the 10% FCS-supplemented EMEM medium adjusted to the desired final concentration of the compounds to be tested was added at 50 μL/well, followed by incubating the plate at 37° C. in the presence of 5% CO2 at 37° C. After 3 days of incubation, the supernatant was removed, the cells were washed with PBS(−), and the cell lysis buffer supplied with the SingleShot (registered trademark) Cell Lysis Kit (Bio-Rad) was added dropwise at 50 μL/well to lysis the cells thereby providing the cell lysate.
Human RS virus RNA copy number in the cell lysate was determined by quantitative RT-PCR using iTaq Universal SYBR Green One-Step Kit (Bio-Rad). Specifically, primers targeting human RS virus N gene (Rameix-Welti et al, Nat Commun5: 5104, 2014. doi: 10.1038/ncomms6104) was used to prepare the reaction solution according to the instructions provided with the kit, and a 96-well PikoReal Real-Time PCR System (TCR0096, Thermo Fisher Scientific) was used to detect PCR reaction and signal assay.
The copy number was calculated by the relative method using the comparative Ct method using compound-free virus-infected cells as controls.

[1] = RS virus RNA copy number by quantitative RT-PCR
[2] = RS virus N gene RNA copy number by quantitative RT-PCR

SMILES	IC50 [1]	IC50 [2]
CS(=O)(=O)N1CC2(CC2)C[C@H]1c1nc(CCCc2ccccc2)no1 [Compound 5C, 3-(3-phenylpropyl)-5-{(6S)-5-methanesulfonyl-5-azaspiro[2.4]hept-6-yl}-1,2,4-oxadiazole]	> 50 µM	
CC(C)CC(=O)N1CCCC[C@H]1c1nc(CCCc2ccccc2)no1 [Compound 2Q, (S)-3-Methyl-1-(2-(3-(3-phenylpropyl)-1,2,4-oxadiazol-5-yl)piperidin-1-yl)butan-1-one]	< 10 µM	
CC(C)(C)OC(=O)NCc1noc([C@@H]2C[C@@H](c3ccccc3)CN2S(=O)(=O)c2ccc(F)cc2)n1 [Compound 43AJ, Tert-butyl ((5-((2S,4S)-1-((4-fluorophenyl)sulfonyl)-4-phenylpyrrolidin-2-yl)-1,2,4-oxadiazol-3-yl)methyl) carbamate]	10 to 50 µM	
CC(C)(C)OC(=O)N1[C@@H]2CC[C@@H](C2)[C@H]1c1nnc(CCc2ccncc2)[nH]1 [Compound 25-1, Tert-butyl (1R,3S,4S)-3-(5-(2-(pyridin-4-yl)ethyl)-4H-1,2,4-triazol-3-yl)-2-azabicyclo[2.2.1]heptane-2-carboxylate]	10 to 50 µM	
COc1ccc(CCCc2noc([C@@H]3CCCCN3C(=O)OC(C)(C)C)n2)cc1OC [Compound 22-1, Tert-butyl (S)-2-(3-(3-(3,4-dimethoxyphenyl)propyl)-1,2,4-oxadiazol-5-yl)piperidine-1-carboxylate]	< 10 µM	
CC(C)NC(=O)N1CCCC[C@H]1c1nc(CCc2ccccc2)no1 [Compound 10G, (S)—N-isopropyl-2-(3-phenethyl-1,2,4-oxadiazol-5-yl) piperidine-1-carboxamide]	> 50 µM	
CN(C)c1ccc(S(=O)(=O)N2CC(CC3CCC3)CC2c2nc(CCCc3ccccc3)no2)cc1 (centres unmarked) [Compound 6AK, 4-((4-(cyclobuthylmethyl)-2-(3-(3-phenylpropyl)-1,2,4-oxadiazole-5-yl)pyrrolidin-1-yl)sulfonyl)-N,N-dimethylaniline]	< 10 µM	
O=C(NCc1ccccc1)N1CCC[C@H]1c1nc(CCCc2ccccc2)no1 [Compound 1F, (S)—N-Benzyl-2-(3-(3-phenylpropyl)-1,2,4-oxadiazol-5-yl) pyrrolidine-1-carboxamide]	10 to 50 µM	
CN(C)c1cccc2c(S(=O)(=O)N3CC(CC4CCC4)CC3c3nc(CCCc4ccccc4)no3)cccc12 (centres unmarked) [Compound 6AL, 5-((4-(cyclobuthylmethyl)-2-(3-(3-phenylpropyl)-1,2,4-oxadiazole-5-yl)pyrrolidin-1-yl)sulfonyl)-N,N-dimethylnaphthalen-1-amine]	< 10 µM	
CC(C)(C)OC(=O)N1CCCC[C@H]1c1nnc(CCCc2ccccc2)[nH]1 [Compound 20-1, Tert-butyl (S)-2-(5-(3-phenylpropyl)-4H-1,2,4-triazol-3-yl) piperidine-1-carboxylate]	< 10 µM	
CC(C)(C)OC(=O)N1CC2(CC2)C[C@H]1c1nc(CCCc2ccccc2)no1 [Compound 5-1, 3-(3-phenylpropyl)-5-{(6S)-5-tert-butoxycarbonyl-5-azaspiro[2.4]hept-6-yl}-1,2,4-oxadiazole]	< 10 µM	
COc1ccc(S(=O)(=O)N2C[C@H](c3ccccc3)C[C@H]2c2nc(CCCc3ccccc3)no2)cc1 [Compound 7AI, 5-((2S,4S)-1-((4-methoxyphenyl)sulfonyl)-4-phenylpyrrolidin-2-yl)-3-(3-phenylpropyl)-1,2,4-oxadiazole]	< 10 µM	
O=S(=O)(N1CCOCC1)N1CC2(CC2)C[C@H]1c1nc(CCCc2ccccc2)no1 [Compound 5AE, (S)-4-((6-(3-(3-phenylpropyl)-1,2,4-oxadiazole-5-yl)-5-azaspiro[2.4]heptan-5-yl)sulfonyl)morpholine]	10 to 50 µM	
O=S(=O)(Cc1ccccc1)N1CCC[C@H]1c1nc(CCCc2ccccc2)no1 [Compound 1E, 3-(3-phenylpropyl)-5-[(2S)-1-benzylsulfonylpyrrolidin-2-yl]-1,2,4-oxadiazole]		10 to 50 µM
CC(C)CS(=O)(=O)N1CCCC[C@H]1c1nc(CCc2ccncc2)no1 [Compound 12A, (S)-5-(1-(Isobutylsulfonyl)piperidin-2-yl)-3-(2-(pyridin-4-yl)ethyl)-1,2,4-oxadiazole]	< 10 µM	
CC(C)(C)OC(=O)N1CCC[C@H]1c1nc(CCc2ccccc2)no1 [Compound 9-1, 3-(2-phenylethyl)-5-[(2S)-1-tert-butoxycarbonylpyrrolidin-2-yl]-1,2,4-oxadiazole]	> 50 µM	
CC(C)(C)OC(=O)N1CC(CS(=O)(=O)N2CC(CC3CCC3)CC2c2nc(CCCc3ccccc3)no2)C1 (centres unmarked) [Compound 6AM, tert-buthyl 3-(((4-(cyclobuthylmethyl)-2-(3-(3-phenylpropyl)-1,2,4-oxadiazole-5-yl)pyrrolidin-1-yl)sulfonyl)methyl)azetidin-1-carboxylate]	< 10 µM	
CC(C)(C)O[C@@H]1C[C@@H](c2nc(CCCc3ccccc3)no2)N(C(=O)c2ccc3cc(C(=O)N4C[C@H](OC(C)(C)C)C[C@H]4c4nc(CCCc5ccccc5)no4)ccc3c2)C1 [Compound 4-4, Naphthalene-2,6-diylbis (((2S,4R)-4-(tert-butoxy)-2-(3-(3-phenylpropyl)-1,2,4-oxadiazol-5-yl)pyrrolidin-1-yl)methanone)]		> 50 µM
CC(C)CS(=O)(=O)N1CC(c2ccccc2)C[C@H]1c1nc(CCCc2ccccc2)no1 (stereo in doubt) [Compound 7A, 3-(3-phenylpropyl)-5-[(2S,4S)-1-isobutylsulfonyl-4-phenylpyrrolidin-2-yl]-1,2,4-oxadiazole]	< 10 µM	
c1ccc(CCCc2noc([C@@H]3CCCCN3Cc3ccccc3)n2)cc1 [Compound 2AA, (S)-5-(1-benzylpiperidin-2-yl)-3-(3-phenylpropyl)-1,2,4-oxadiazole]	10 to 50 µM	
CC(C)CS(=O)(=O)N1[C@@H]2CC[C@@H](C2)[C@H]1c1nc(CCc2ccccc2)no1 [Compound 14A, 5-((1R,3S,4S)-2-(isobutylsulfonyl)-2-azabicyclo[2.2.1]heptan-3-yl)-3-phenethyl-1,2,4-oxadiazole]	10 to 50 µM	
CC(C)(C)OC(=O)N1C[C@H](c2ccccc2)C[C@H]1c1nc(CCCCCc2ccccc2)no1 [Compound C5-7-1, Tert-butyl (2S,4S)-4-phenyl-2-(3-(5-phenylpentyl)-1,2,4-oxadiazol-5-yl)pyrrolidine-1-carboxylate]	< 10 µM	

Next, values leading:

IC50 [1]	IC50 [2]	SMILES
< 10 µM		O=S(=O)(C1CCOCC1)N1CC(CC2CCC2)CC1c1nc(CCCc2ccccc2)no1 (centres unmarked) [Compound 6AP, 5-(4-(cyclobuthylmethyl)-1-((tetrahydro-2H-pyran-4-yl)sulfonyl)pyrrolidin-2-yl)-3-(3-phenylpropyl)-1,2,4-oxadiazole]
< 10 µM		O=S(=O)(C1CCCCC1)N1CC(c2ccccc2)C[C@H]1c1nc(CCCc2ccccc2)no1 (stereo in doubt) [Compound 7B, 3-(3-Phenylpropyl)-5-[(2S,4S)-1-cyclohexylsulfonyl-4-phenylpyrrolidin-2-yl]-1,2,4-oxadiazole]
< 10 µM		O=S(=O)(C1CCCCC1)N1CC(CC2CCC2)CC1c1nc(CCCc2ccccc2)no1 (centres unmarked) [Compound 6B, 3-(3-phenylpropyl)-5-(1-cyclohexylsulfonyl-4-cyclobutylmethylpyrrolidin-2-yl)-1,2,4-oxadiazole]
10 to 50 µM		Cc1oc([C@@H]2CCCCN2S(=O)(=O)C2CCCCC2)nc1C(=O)O [Compound 33B, (S)-2-(1-(Cyclohexylsulfonyl)piperidin-2-yl)-5-methyl oxazole-4-carboxylic acid]
	10 to 50 µM	O=S(=O)(C1CCCCC1)N1C[C@H](O)C[C@H]1c1nc(CCCc2ccccc2)no1 [Compound 3B, 3-(3-phenylpropyl)-5-[(2S,4R)-1-cyclohexylsulfonyl-4-hydroxypyrrolidin-2-yl]-1,2,4-oxadiazole]
< 10 µM		CC(C)(C)OC(=O)N1CCC(CS(=O)(=O)N2CC3(CC3)C[C@H]2c2nc(CCCc3ccccc3)no2)CC1 [Compound 5AN, tert-buthyl (S)-4-(((6-(3-(3-phenylpropyl)-1,2,4-oxadiazole-5-yl)-5-azaspiro[2.4]heptan-5-yl)sulfonyl)methyl)piperidin-1-carboxylate]
10 to 50 µM		O=S(=O)(N1CCOCC1)N1CC(CC2CCC2)CC1c1nc(CCCc2ccccc2)no1 (centres unmarked) [Compound 6AE, 4-((4-(cyclobuthylmethyl)-2-(3-(3-phenylpropyl)-1,2,4-oxadiazole-5-yl)pyrrolidin-1-yyl)sulfonyl)morpholine]
10 to 50 µM		COC(=O)c1nc([C@@H]2CCCCN2S(=O)(=O)C2CCCCC2)oc1C [Compound 32B, Methyl (S)-2-(1-(cyclohexylsulfonyl)piperidin-2-yl)-5-methyloxazole-4-carboxylate]
< 10 µM		Cc1sc([C@@H]2CCCCN2S(=O)(=O)C2CCCCC2)nc1C(=O)O [Compound 36B, (S)-2-(1-(Cyclohexylsulfonyl)piperidin-2-yl)-5-methyl thiazole-4-carboxylic acid]
	10 to 50 µM	CC(C)CS(=O)(=O)N1CCCC[C@H]1c1nc(CCCc2ccccc2)no1 [Compound 2A, 3-(3-phenylpropyl)-5-[(2S)-1-isobutylsulfonylpiperidin-2-yl]-1,2,4-oxadiazole]
